The values that follow come from BindingDB's records for doi:10.1080/1475636021000005721 (Universit&Eacute, 2002).

SMILES strings stand for the structures.

Serotonin N-acetyltransferase, sequence (Q16613 whole entry): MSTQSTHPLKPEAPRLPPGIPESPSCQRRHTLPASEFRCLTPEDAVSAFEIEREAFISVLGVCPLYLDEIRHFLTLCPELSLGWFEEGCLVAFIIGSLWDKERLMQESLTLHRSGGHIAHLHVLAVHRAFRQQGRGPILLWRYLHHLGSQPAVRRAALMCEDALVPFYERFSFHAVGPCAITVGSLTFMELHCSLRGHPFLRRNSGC

The test has as its target Serotonin N-acetyltransferase (Homo sapiens, UniProt Q16613). In words: AANAT Assay. As to conditions: pH 6.8; 37 °C. The procedure:
The compounds were evaluated in a human serotonin N-acetyltransferase assay.
The term IC50 denotes the concentration at which inhibition is half-maximal. For the molecule `O=C(CBr)NCCc1c[nH]c2ccccc12`, the IC50 is 1430 nM.
Next, `COc1ccc2occ(CCNC(=O)CBr)c2c1` [AANAT Inhibitor, 8c]: 40000 nM.
Next, `COc1ccc2scc(CCNC(=O)CBr)c2c1` [AANAT Inhibitor, 8d]: 610 nM; `O=C(CBr)NCCc1csc2ccccc12` [AANAT Inhibitor, 8e]: 680 nM.
Next, `O=C(CBr)NCCc1csc2ccc(Br)cc12` [AANAT Inhibitor, 8g]: 3780 nM; `O=C(CBr)NCCc1csc2ccc(F)cc12` [AANAT Inhibitor, 8h]: 390 nM; `CCc1ccc2scc(CCNC(=O)CBr)c2c1` [AANAT Inhibitor, 8i]: 700 nM.
Molecule `O=C(CBr)NCCc1csc2ccc(O)cc12` [AANAT Inhibitor, 12d] registered an IC50 of 180 nM.
